Assay results from paper PMC5119973 (Cancer Medicine, 2016).

Tests used:
FLT3^R834Q = target: T1, FLT3^R834Q (Homo sapiens, UniProt P36888, R834Q); assay: KINOMEscan active-site competitive binding assay
T1 construct: purchased DiscoveRx

FGFRs = assay: KINOMEscan active-site competitive binding assay; details: range among family members, data not shown
KIT^D816V = target: T2, KIT^D816V (Homo sapiens, UniProt P10721, D816V); assay: KINOMEscan active-site competitive binding assay
T2 construct: purchased DiscoveRx

RAF1 = target: T3, RAF1 (Homo sapiens, UniProt P04049); assay: KINOMEscan active-site competitive binding assay; details: slash = two separate measurements
T3 construct: purchased DiscoveRx

KIT^A829P = target: T4, KIT^A829P (Homo sapiens, UniProt P10721, A829P); assay: KINOMEscan active-site competitive binding assay
T4 construct: purchased DiscoveRx

RET^M918T = target: T5, RET^M918T (Homo sapiens, UniProt P07949, M918T); assay: KINOMEscan active-site competitive binding assay
T5 construct: purchased DiscoveRx (KINOMEscan service)

BRAF = target: T6, BRAF (Homo sapiens, UniProt P15056); assay: KINOMEscan active-site competitive binding assay; details: slash = two separate measurements
T6 construct: purchased DiscoveRx (KINOMEscan service)

KIT [1] = target: T7, KIT (Homo sapiens, UniProt P10721); assay: Cellular kinase phosphorylation assay, M07e/KIT; assay type: cell-based; parameters: human acute megakaryoblastic leukemia cell line (M07e; wt KIT assay); host or cells: M07e; details: M07e/KIT cells; without serum; read-out: Mean ± SD IC50
VEGFR2 [2] = target: T8, VEGFR2 (Homo sapiens, UniProt P35968); assay: VEGFR2 autophosphorylation in HuVECs stimulated with VEGF‐A (western blot); assay type: cell-based; parameters: VEGFR2 autophosphorylation in HuVECs; endogenous in cells; host or cells: HuVEC; details: VEGF‐A stimulation, 0.1% bovine serum albumin, estimated from western blots, read-out: Mean ± SD IC50
Description: (§1) Endothelial cell assays were performed as described previously 14. In brief, HuVECs and HuLECs were grown in EBM‐2 supplemented with growth factors (Lonza, Walkersville, MD). After serum starvation for 6 h in EBM‐2 containing 0.1% BSA, 2 × 10^5 cells were treated with various concentrations of each compound for 1 h before stimulation with VEGF‐A (50 ng/mL) or VEGF‐C (200 ng/mL) for 10 min. Cells were lysed, and total cell lysates were analyzed for inhibition of phosphorylation by western blot, using antibodies against total and phosphorylated VEGFR2 and VEGFR3, ERK1/2, and AKT. Signals were detected by […] luminescence (GE Healthcare Biosciences; Pittsburgh, PA).

BRAF^V600E = BRAF^V600E (Homo sapiens, UniProt P15056, V600E); assay: KINOMEscan active-site competitive binding assay
VEGFR2 [3] = target: T8, VEGFR2; assay: KINOMEscan active-site competitive binding assay; parameters: purchased DiscoveRx; details: slash = two separate measurements
RET = target: T9, RET (Homo sapiens, UniProt P07949); assay: KINOMEscan active-site competitive binding assay; details: slash = two separate measurements
T9 construct: purchased DiscoveRx

FLT3^N841I = target: T10, FLT3^N841I (Homo sapiens, UniProt P36888, N841I); assay: KINOMEscan active-site competitive binding assay
T10 construct: purchased DiscoveRx

KIT^D816H = target: T11, KIT^D816H (Homo sapiens, UniProt P10721, D816H); assay: KINOMEscan active-site competitive binding assay
T11 construct: purchased DiscoveRx

PDGFRB = target: T12, PDGFRB (Homo sapiens, UniProt P09619); assay: KINOMEscan active-site competitive binding assay; details: slash = two separate measurements
T12 construct: purchased DiscoveRx

KIT^V559D = target: T13, KIT^V559D (Homo sapiens, UniProt P10721, V559D); assay: KINOMEscan active-site competitive binding assay
T13 construct: purchased DiscoveRx (KINOMEscan service)

RET^V804L = target: T14, RET^V804L (Homo sapiens, UniProt P07949, V804L); assay: KINOMEscan active-site competitive binding assay
T14 construct: purchased DiscoveRx (KINOMEscan service)

[4] = Plasma pharmacokinetics in female NMRI Foxn1 nu/nu mice; details: for Calculated maximum free drug concentration: murine plasma
Description: Analyte concentrations were measured by high‐performance liquid chromatography using a Hewlett Packard 1100 Series system (Palo Alto, CA), with tandem mass spectrometric detection using an Applied Biosystems API 4000 (Thermo Fisher Scientific, Waltham, MA). The assay was validated according to the applicable guideline on method validation 11. The lower limit of quantitation for the assay was 2.00 μg/L, with a linear range of 2.00–20,000 μg/L using a sample volume of 100 μL.
Pharmacokinetic studies were performed in female NMRI Foxn1 nu/nu mice, supplied by Harlan‐Winkelmann GmbH (Borchen, Germany). […] Pharmacokinetic parameters, namely the AUC(0–24)ss and C max, were calculated from plasma concentrations using a noncompartmental analysis.

PDGFRs = assay: KINOMEscan active-site competitive binding assay; details: range among family members
RET^V804M = target: T15, RET^V804M (Homo sapiens, UniProt P07949, V804M); assay: KINOMEscan active-site competitive binding assay
T15 construct: purchased DiscoveRx (KINOMEscan service)

TIE‐2 [5] = target: T16, TIE‐2 (Homo sapiens, UniProt Q02763); assay: KINOMEscan active-site competitive binding assay; parameters: purchased DiscoveRx (KINOMEscan service); details: data not shown
VEGFR3 = target: T17, VEGFR3 (Homo sapiens, UniProt P35916); assay: VEGFR3 autophosphorylation in HuLECs stimulated with VEGF‐C (western blot); assay type: cell-based; details: VEGF‐C stimulation, 0.1% bovine serum albumin, estimated from western blots, read-out: Mean ± SD IC50
T17 construct: VEGFR3 autophosphorylation in HuLECs; endogenous in cells; host or cells: HuLEC
Description: as §1

KIT [6] = target: T7, KIT; assay: KINOMEscan active-site competitive binding assay; parameters: purchased DiscoveRx (KINOMEscan service); details: slash = two separate measurements
TIE‐2 [7] = target: T16, TIE‐2; assay: Cellular kinase phosphorylation assay, CHO/TIE2; assay type: cell-based; details: CHO/TIE2 cells; without serum; brackets = number of experiments; read-out: Mean ± SD IC50
[8] = M‐2‐treated mice, 10 mg/kg/day oral for 5 days
[9] = after M‐2 10 mg/kg/day oral for 5 days, total = sum of molar concentrations of regorafenib, M‐2, M‐5
[10] = after regorafenib 10 mg/kg/day oral for 5 days, total = sum of molar concentrations of regorafenib, M‐2, M‐5
[11] = after the labelled (administered) compound, 10 mg/kg/day oral for 5 days
[12] = analyte in plasma after M‐2 10 mg/kg/day oral for 5 days
[13] = analyte in plasma after M‐2 10 mg/kg/day oral for 5 days, AUC(0–24)ss
[14] = analyte in plasma after regorafenib 10 mg/kg/day oral for 5 days
[15] = analyte in plasma after regorafenib 10 mg/kg/day oral for 5 days, AUC(0–24)ss
[16] = regorafenib‐treated mice, 10 mg/kg/day oral for 5 days
[17] = analyte in plasma after M‐5 10 mg/kg/day oral for 5 days

T8 sequence (P35968 20-1356): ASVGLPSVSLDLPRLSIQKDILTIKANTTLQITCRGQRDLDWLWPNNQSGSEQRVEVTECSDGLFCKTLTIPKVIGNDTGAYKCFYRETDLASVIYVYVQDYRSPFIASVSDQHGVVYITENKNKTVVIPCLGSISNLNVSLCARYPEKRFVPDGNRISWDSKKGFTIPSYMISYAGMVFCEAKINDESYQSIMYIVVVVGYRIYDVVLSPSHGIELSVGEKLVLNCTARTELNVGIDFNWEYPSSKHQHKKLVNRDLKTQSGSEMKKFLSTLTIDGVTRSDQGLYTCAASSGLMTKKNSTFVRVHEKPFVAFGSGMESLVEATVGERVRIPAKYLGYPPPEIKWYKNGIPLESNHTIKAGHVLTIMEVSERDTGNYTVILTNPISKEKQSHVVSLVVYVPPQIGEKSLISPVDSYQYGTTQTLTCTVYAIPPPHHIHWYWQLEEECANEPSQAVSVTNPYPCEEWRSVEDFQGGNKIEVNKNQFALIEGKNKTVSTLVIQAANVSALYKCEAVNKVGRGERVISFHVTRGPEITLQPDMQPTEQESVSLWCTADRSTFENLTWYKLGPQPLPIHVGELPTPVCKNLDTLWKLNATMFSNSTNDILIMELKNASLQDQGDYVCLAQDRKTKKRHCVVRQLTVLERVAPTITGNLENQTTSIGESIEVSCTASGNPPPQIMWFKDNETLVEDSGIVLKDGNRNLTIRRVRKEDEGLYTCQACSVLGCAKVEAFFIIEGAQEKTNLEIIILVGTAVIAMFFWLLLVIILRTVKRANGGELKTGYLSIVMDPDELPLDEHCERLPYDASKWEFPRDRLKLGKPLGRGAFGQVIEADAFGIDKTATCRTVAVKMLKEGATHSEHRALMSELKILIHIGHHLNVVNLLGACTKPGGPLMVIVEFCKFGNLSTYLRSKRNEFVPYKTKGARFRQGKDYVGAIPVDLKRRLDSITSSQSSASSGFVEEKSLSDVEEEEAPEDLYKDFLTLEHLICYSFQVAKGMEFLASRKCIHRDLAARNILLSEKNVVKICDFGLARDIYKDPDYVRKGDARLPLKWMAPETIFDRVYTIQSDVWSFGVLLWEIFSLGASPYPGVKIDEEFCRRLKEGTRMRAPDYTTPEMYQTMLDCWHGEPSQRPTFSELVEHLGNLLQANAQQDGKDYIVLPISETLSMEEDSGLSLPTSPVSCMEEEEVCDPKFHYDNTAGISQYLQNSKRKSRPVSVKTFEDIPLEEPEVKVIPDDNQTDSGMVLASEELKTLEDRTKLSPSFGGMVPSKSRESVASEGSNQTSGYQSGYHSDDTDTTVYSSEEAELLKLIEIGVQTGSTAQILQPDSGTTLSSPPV
T7 sequence (P10721 26-976): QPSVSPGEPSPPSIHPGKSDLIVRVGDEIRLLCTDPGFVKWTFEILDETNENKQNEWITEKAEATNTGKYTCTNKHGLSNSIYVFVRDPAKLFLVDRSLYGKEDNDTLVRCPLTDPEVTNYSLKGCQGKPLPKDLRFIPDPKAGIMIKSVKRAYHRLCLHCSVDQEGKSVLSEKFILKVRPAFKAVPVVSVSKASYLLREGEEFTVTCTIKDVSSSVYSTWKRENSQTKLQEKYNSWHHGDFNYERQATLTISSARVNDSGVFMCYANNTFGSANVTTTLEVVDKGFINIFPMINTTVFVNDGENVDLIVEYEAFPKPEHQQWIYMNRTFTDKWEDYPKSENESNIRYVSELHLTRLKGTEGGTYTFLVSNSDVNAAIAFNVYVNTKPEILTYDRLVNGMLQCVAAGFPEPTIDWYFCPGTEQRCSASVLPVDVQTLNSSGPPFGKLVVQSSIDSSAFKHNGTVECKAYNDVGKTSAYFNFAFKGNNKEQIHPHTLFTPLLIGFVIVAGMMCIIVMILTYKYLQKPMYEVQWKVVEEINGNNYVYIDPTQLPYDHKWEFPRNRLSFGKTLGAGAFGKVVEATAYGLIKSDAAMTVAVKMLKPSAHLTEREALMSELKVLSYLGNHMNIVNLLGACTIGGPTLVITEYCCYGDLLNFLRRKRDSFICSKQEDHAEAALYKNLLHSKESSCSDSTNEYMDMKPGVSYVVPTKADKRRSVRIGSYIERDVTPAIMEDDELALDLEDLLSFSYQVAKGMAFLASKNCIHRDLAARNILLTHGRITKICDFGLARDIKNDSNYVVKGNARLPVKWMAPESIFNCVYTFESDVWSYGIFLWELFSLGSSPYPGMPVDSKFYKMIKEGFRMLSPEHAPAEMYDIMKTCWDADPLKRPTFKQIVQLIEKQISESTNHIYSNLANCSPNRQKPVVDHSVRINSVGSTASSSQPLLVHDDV
T16 sequence (Q02763 23-1124): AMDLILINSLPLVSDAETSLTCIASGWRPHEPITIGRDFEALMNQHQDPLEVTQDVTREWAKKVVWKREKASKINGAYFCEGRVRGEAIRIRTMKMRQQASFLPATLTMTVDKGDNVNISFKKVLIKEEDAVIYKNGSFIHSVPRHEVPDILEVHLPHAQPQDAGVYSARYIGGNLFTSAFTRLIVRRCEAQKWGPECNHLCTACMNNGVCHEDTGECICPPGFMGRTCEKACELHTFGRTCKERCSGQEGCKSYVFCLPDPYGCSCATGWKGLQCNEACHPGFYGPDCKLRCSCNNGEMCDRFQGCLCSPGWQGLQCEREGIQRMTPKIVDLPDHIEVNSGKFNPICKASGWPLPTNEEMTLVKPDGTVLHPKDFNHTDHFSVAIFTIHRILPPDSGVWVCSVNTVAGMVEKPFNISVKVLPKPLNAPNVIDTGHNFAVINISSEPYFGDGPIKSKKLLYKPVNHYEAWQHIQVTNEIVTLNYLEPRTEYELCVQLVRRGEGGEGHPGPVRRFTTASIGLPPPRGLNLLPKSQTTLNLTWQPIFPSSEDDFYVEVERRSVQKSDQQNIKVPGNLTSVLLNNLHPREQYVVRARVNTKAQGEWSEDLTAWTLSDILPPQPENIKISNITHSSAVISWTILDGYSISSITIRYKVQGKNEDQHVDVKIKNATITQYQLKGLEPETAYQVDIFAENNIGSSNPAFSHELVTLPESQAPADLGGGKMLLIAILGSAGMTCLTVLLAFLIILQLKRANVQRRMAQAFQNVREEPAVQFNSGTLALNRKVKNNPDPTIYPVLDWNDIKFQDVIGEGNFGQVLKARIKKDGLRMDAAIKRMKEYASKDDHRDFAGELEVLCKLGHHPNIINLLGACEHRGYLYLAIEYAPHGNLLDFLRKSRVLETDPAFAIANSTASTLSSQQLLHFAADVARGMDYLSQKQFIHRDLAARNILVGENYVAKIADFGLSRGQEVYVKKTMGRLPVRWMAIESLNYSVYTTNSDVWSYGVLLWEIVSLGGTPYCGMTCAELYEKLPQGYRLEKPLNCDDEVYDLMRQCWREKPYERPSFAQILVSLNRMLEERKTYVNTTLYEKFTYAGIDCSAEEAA
T9 sequence (P07949 29-1114): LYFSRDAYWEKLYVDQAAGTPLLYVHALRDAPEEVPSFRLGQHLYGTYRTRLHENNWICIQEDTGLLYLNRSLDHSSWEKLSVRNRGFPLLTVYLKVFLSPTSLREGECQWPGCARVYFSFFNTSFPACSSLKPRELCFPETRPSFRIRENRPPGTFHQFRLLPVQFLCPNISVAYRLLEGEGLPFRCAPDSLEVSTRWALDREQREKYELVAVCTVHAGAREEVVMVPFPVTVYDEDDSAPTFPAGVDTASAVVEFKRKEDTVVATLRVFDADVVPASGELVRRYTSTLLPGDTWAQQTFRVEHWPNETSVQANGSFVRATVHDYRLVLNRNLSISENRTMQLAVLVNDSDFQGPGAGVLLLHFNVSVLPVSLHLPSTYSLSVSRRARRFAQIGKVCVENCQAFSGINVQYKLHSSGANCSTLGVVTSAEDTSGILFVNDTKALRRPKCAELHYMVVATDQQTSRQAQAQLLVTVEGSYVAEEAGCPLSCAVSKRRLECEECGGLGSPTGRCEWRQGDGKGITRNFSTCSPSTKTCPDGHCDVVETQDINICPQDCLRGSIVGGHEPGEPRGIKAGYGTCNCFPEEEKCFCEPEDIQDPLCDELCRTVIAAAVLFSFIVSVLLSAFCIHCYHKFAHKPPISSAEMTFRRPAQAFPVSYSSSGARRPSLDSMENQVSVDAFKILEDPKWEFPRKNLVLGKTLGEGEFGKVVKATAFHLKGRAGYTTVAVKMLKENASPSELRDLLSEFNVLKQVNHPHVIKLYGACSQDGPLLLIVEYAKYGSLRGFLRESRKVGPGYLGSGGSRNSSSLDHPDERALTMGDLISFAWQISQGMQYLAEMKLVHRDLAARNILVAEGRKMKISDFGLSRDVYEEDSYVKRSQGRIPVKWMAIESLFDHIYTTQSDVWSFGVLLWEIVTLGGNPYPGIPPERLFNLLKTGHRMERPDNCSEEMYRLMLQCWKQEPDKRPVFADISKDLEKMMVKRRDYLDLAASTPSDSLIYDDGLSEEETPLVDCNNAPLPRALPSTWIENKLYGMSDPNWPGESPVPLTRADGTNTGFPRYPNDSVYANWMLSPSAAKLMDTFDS
T14 sequence (P07949 29-1114 V804L): as the sequence (P07949 29-1114) above, with V776L counted along it
T13 sequence (P10721 26-976 V559D): as the sequence (P10721 26-976) above, with V534D counted along it
T5 sequence (P07949 29-1114 M918T): as the sequence (P07949 29-1114) above, with M890T counted along it
T2 sequence (P10721 26-976 D816V): as the sequence (P10721 26-976) above, with D791V counted along it
T4 sequence (P10721 26-976 A829P): as the sequence (P10721 26-976) above, with A804P counted along it
T11 sequence (P10721 26-976 D816H): as the sequence (P10721 26-976) above, with D791H counted along it
T15 sequence (P07949 29-1114 V804M): as the sequence (P07949 29-1114) above, with V776M counted along it

SMILES	Kd (FLT3^R834Q)	Kd (FGFRs)	Kd (KIT^D816V)	Kd (RAF1)	Kd (KIT^A829P)	Kd (RET^M918T)	Kd (BRAF)	IC50 (KIT [1])	IC50 (VEGFR2 [2])	Kd (BRAF^V600E)	Kd (VEGFR2 [3])	Kd (RET)	Kd (FLT3^N841I)	Kd (KIT^D816H)	Kd (PDGFRB)	Kd (KIT^V559D)	Kd (RET^V804L)	Share of total exposure (sum of total AUC(0–24)ss) [4, 8]	AUC (% of total) [4, 9]	AUC (% of total) [4, 10]	also measured
CNC(=O)c1cc(Oc2ccc(NC(=O)Nc3ccc(Cl)c(C(F)(F)F)c3)c(F)c2)cc[n+]1[O-] [M‐2]	240 nM	440 to 880 nM	300 nM	130 nM	19 nM	7.4 nM	24 nM	13 nM	~4 nM	15 nM	29 nM	7.6 nM	34 nM	490 nM	11 nM	12 nM	13 nM	78%	78%	16%	Overall total C max for all three compounds [4, 11]: about 7500 μg/L; Sum of the total AUC(0–24)ss of regorafenib, M‐2 and M‐5 [4, 11]: 67,093 μg × h/L; AUC [4, 12]: 104.4 µmol·h/L; C max [4, 12]: 6150 ng/mL; Cmax [4, 12]: 12300 nM; AUC [4, 13]: 52,101 μg × h/L; AUC [4, 14]: 15.0 µmol·h/L; C max [4, 14]: 753 ng/mL; Cmax [4, 14]: 1500 nM; AUC [4, 15]: 7490 µg·h/L; Calculated maximum free drug concentration [4]: 13.4 nmol/L; Share of total exposure (sum of total AUC(0–24)ss) [4, 16]: 16%; Kd (PDGFRs): 7.3 to 11 nM; Kd (RET^V804M): 20 nM; Kd (TIE‐2 [5]): 790 nM; IC50 (VEGFR3): ~4 nM; Kd (KIT [6]): 9.8 nM; IC50 (TIE‐2 [7]): 66 ± 35 nM
NC(=O)c1cc(Oc2ccc(NC(=O)Nc3ccc(Cl)c(C(F)(F)F)c3)c(F)c2)cc[n+]1[O-] [M‐5]	270 nM	790 to 1100 nM	310 nM	66 nM	19 nM	5.8 nM	17 nM	110 nM	~16 nM	11 nM	31 nM	5.8 nM	23 nM	460 nM	11 nM	9.6 nM	15 nM	5%	5%	2%	AUC (% of total) ([4]; after M‐5 10 mg/kg/day oral for 5 days, only M‐5 determined): 100%; AUC [4, 12]: 7.0 µmol·h/L; C max [4, 12]: 342 ng/mL; Cmax [4, 12]: 700 nM; AUC [4, 13]: 3391 µg·h/L; AUC [4, 17]: 108.9 µmol·h/L; Cmax [4, 17]: 10900 nM; AUC ([4]; analyte in plasma after M‐5 10 mg/kg/day oral for 5 days, AUC(0–24)ss): 52,796 μg × h/L; AUC [4, 14]: 1.6 µmol·h/L; C max [4, 14]: 63 ng/mL; Cmax [4, 14]: 100 nM; AUC [4, 15]: 772 µg·h/L; Calculated maximum free drug concentration [4]: 0.5 nmol/L; Share of total exposure (sum of total AUC(0–24)ss) [4, 16]: 2%; Kd (PDGFRs): 11 nM; Kd (RET^V804M): 25 nM; Kd (TIE‐2 [5]): 1200 nM; IC50 (VEGFR3): ~16 nM; Kd (KIT [6]): 5.8 nM; IC50 (TIE‐2 [7]): 180 nM
